Measured values published in US20190369111A1, “MOLECULAR KINETICS EVALUATION METHOD AND SCREENING METHOD” (Tokyo University of Science Foundation, priority 2016, published 2019).

Molecular target: T1, SOS1 protein (Homo sapiens, UniProt Q07889)
T1 construct: endogenous in cells; host or cells: HeLa cells
T1 sequence (Q07889 1-1333): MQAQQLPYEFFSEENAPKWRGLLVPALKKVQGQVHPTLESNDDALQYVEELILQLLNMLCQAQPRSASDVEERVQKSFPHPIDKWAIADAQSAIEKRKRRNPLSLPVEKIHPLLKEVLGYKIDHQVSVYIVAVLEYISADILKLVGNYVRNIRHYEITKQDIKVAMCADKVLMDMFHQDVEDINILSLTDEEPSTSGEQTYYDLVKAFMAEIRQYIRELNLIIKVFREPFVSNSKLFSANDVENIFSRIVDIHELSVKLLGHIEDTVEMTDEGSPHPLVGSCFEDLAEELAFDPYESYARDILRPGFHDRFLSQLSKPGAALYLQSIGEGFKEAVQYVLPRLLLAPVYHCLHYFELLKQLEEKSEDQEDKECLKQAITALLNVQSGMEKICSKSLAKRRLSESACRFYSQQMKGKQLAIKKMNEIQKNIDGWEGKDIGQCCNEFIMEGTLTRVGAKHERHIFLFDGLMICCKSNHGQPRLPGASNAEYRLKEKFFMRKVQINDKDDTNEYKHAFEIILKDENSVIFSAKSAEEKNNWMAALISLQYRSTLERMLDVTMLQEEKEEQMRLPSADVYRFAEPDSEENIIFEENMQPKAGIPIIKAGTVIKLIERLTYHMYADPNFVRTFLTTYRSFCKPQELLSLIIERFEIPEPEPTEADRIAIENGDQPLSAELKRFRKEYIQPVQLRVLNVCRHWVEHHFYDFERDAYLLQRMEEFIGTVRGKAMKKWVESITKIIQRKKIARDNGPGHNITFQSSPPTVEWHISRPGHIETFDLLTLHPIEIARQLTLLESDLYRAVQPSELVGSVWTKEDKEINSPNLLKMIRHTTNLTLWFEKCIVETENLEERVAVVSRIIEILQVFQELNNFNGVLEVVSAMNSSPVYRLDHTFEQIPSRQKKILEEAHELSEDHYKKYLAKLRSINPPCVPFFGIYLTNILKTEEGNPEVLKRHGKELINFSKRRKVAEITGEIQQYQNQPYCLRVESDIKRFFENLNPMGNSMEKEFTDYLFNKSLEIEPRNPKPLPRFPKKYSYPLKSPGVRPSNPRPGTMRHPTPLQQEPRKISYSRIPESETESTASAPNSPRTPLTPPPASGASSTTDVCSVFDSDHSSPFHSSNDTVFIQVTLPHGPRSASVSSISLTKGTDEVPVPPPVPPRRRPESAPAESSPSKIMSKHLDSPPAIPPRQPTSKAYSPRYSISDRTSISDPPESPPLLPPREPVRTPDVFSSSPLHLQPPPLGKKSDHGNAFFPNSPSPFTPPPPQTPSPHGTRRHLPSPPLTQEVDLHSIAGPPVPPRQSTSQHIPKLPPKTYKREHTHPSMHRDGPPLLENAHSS
Assay: Amount of SOS1 protein in HeLa cells, Western blot analysis
Type: cell-based
Settings: 48 hours after addition
Experimental: HeLa cells were seeded in a 24-well plate at a cell density of 8×10^4 cells/well, and then cultured under conditions of 37° C. and 5 vol % CO2 for 16 hours.
After 16 hours from cell seeding, TUS-007 was added to HeLa cells as follows. As a medium, a serum-free medium (37° C.) in which 1 mass % L-glutamine solution (Sigma-Aldrich) was added to D-MEM (high D-glucose, phenol red, sodium pyruvate (Wako Pure Chemical Industries, Ltd.)) was used. It is noted that the L-glutamine solution was added immediately before use. A DMSO solution containing TUS-007 was mixed with the medium so that the concentration of DMSO was 1 vol %, and added to each well at 500 μL/well, and cultured under conditions of 37° C. and 5 vol % CO2. As a control, DMSO was used.
The medium was removed 48 hours after addition of TUS-007, and then PBS was added to wash the cells. […]
After electrophoresis, proteins were transferred to a PVDF membrane (Immobion™-P, Millipore) under conditions of 100 V and 2 hours using a tank-type blotting device and a transfer buffer (25 mM Tris-HCl, 195 mM glycine, 0.01% SDS, 15% methanol). […] Subsequently, the membrane was treated with a chemiluminescence reagent Immobilon™ Western (Millipore), and then chemiluminescence was detected using a lumino image analyzer LAS-3000 (FUJIFILM Corporation). […]

Compound: CC[C@@H](C)[C@H](NC(=O)CCCCCCNC(=O)[C@H](CC(C)C)NC(=O)CNC(=O)c1cc(Cl)ccc1Cl)C(=O)Nc1ccc2[nH]c(Cc3c[nH]c4ccccc34)nc2c1 [TUS-007]
- amount of SOS1 protein: not reduced
